According to ChEMBL document CHEMBL1130303, “Evaluation of piperidinoethoxy moiety as an antiestrogenic substituent in non-steroidal anti-estrogens: Fertility regulation” (1997):
Activity calls are given as the source filed them. No cut-off for these calls is given here.

Legend:
[1] = molecular target: Estrogen receptor (Rattus norvegicus) (UniProt P06211+Q62986); test: Relative Binding Affinity (RBA) for estrogen receptor in ovariectomized rats; format: protein assay
Rattus norvegicus [2] = species: Rattus norvegicus; test: Antifertility activity at maximal effective dose in adult female rat in an antiestrogen assay; format: functional
Rattus norvegicus [3] = test: Antifertility activity at maximal effective dose in adult female rat in an antiestrogen assay; Inactive at 10 mg/kg dose; format: functional, organism-based; design: dose 10 mg/kg
Rattus norvegicus [4] = test: Antifertility activity at maximal effective dose in adult female rat in an antiestrogen assay; Inactive at 5 mg/kg dose; format: functional, organism-based; design: dose 5 mg/kg
Rattus norvegicus [5] = species: Rattus norvegicus; test: Antifertility activity at maximal effective dose in adult female rat in an antiestrogen assay; Inactive; format: functional, organism-based
Rattus norvegicus [6] = test: Antifertility activity at maximal effective dose in adult female rat in an antiestrogen assay at 10 mg/kg; format: functional

relative binding affinity (RBA) [1]	Compound	MED100 (Rattus norvegicus [2]) [mg/kg]	other results
50.1	CC1(C)Oc2cc(O)ccc2[C@@H](c2ccc(OCCN3CCCCC3)cc2)[C@@H]1c1ccccc1	0.2	
0.16	COc1ccc2c(c1)OC(C)(C)[C@H](c1ccccc1)[C@@H]2c1ccc(OCCN2CCCC2)cc1		MED100 (Rattus norvegicus [3]): inactive
3.77	COc1ccc2c(c1)OC(C)(C)[C@@H](c1ccccc1)[C@@H]2c1ccc(OCCN2CCCCC2)cc1	0.1	
7.35	COc1ccc2c(c1)OCC(c1ccccc1)C2c1ccc(OCCN2CCCC2)cc1 (stereo not given)	0.1	
112	CC1(C)Oc2cc(O)ccc2[C@@H](c2ccc(OCCN3CCCC3)cc2)[C@@H]1c1ccccc1	0.25	
5.24	COc1ccc2c(c1)OC(C)(C)[C@@H](c1ccccc1)[C@@H]2c1ccc(OCCN2CCCC2)cc1 [LEVORMELOXIFENE]	0.25	
1.45	COc1ccc2c(c1)OCC(c1ccccc1)C2c1ccc(OCCN2CCCCC2)cc1 (stereo not given)	0.25	

More lines, now with the values behind:

Compound	relative binding affinity (RBA) [1]	MED100 (Rattus norvegicus [2]) [mg/kg]	other results
COc1ccc2c(c1)OC(C)(C)C(c1ccccc1)=C2c1ccc(OCCN2CCCCC2)cc1	0.53	10	
CC1(C)Oc2cc(O)ccc2C(c2ccc(OCCN3CCCC3)cc2)=C1c1ccccc1	9.2	15	
CC1(C)Oc2cc(O)ccc2C(c2ccc(OCCN3CCCCC3)cc2)=C1c1ccccc1	2.11		MED100 (Rattus norvegicus [4]): inactive
COc1ccc2c(c1)OC(C)(C)C(c1ccccc1)=C2c1ccc(OCCN2CCCC2)cc1	0.86	5	
CC1(C)Oc2cc(O)ccc2[C@@H](c2ccc(OCCN3CCCCC3)cc2)[C@H]1c1ccccc1			MED100 (Rattus norvegicus [5]): inactive
CC1(C)Oc2cc(O)ccc2[C@@H](c2ccc(OCCN3CCCC3)cc2)[C@H]1c1ccccc1			MED100 (Rattus norvegicus [5]): inactive
COc1ccc2c(c1)OC(C)(C)[C@H](c1ccccc1)[C@@H]2c1ccc(OCCN2CCCCC2)cc1			Activity (Rattus norvegicus [6]): 90%
